How the values were obtained:
[1] = Solubility character of the agents; assay type: physicochemical
Wistar rats [2] = experiment: Reproductive function study, agents administered to male rats and female rats separately (Example 2); assay type: in vivo, rat; settings: for Amount of embryonate female rats: of 20 added females; for Amount of babies delivered by 1 female / Amount of dead fetuses / Amount of gestation female rats / Amount of implantation sites / Amount of resorptions / Amount of viable fetuses / Amount of yellow bodies / Carniocaudal size of fetus / Fertility index / Fetus body weight / Gestation index / Post-implantation loss / Postnatal loss after 3 weeks / Pre-implantation loss / Weight of newborn baby rats / Dynamics of infant body weight, 1st week / Dynamics of infant body weight, 2nd week / Dynamics of infant body weight, 3rd week / Dynamics of infant body weight, 4th week: 0.35 mg/kg
Procedure: 180 male and female Wistar rats were studied in the experiments (initial body weight—180-200 g). The prototype agent and the agent of present invention in the clathrate complex form were administered intragastrically in amount of 0.35 mg/kg. Female group of 120 animals was broken into two subgroups: control group (80 animals) and study group (40 animals). The prototype agent and the agent of present invention in the clathrate complex form were intragastrically administered to female rats of study group once a day during 2 weeks (3-4 estrous cycles). Male group of 60 animals was broken into two subgroups: control group (40 animals) and study group (20 animals). The prototype agent and the agent of present invention in the clathrate complex form were intragastrically administered to male rats of study group daily during 10 weeks (2-3 cycles of spermatozoa maturation). Corresponding amounts of placebo comprised of vegetable oil or β-cyclodextrin were administered to animals of the control group with the same intervals. The placebo was chosen based on the fact that the prototype agent is an oil-soluble compound and the agent of present invention in the clathrate complex form is a water soluble compound. The drugs were administered once daily (at 10 a.m.).
After administering the medication 6 groups of animals were formed: • the first (vegetable oil)—20 control female rats were housed together with 10 control male rats; • the second (β-cyclodextrin)—20 control female rats were housed together with 10 control male rats; • the third (the prototype, 0.35 mg/kg)—20 study female rats were housed together with 10 control male rats; • the fourth (the prototype, 0.35 mg/kg)—20 control female rats were housed together with 10 study male rats; • the fifth (the agent of present invention in the clathrate complex form 0.35 mg/kg)—20 study female rats were housed together with 10 control male rats; • the sixth (the agent of present invention in the clathrate complex form 0.35 mg/kg)—20 control female rats were housed together with 10 study male rats.
A pre- and post-implantation fetal death indexes, fertility index and gestation index were calculated according to equations cited in Example 1.

Wistar rats [3] = experiment: Reproductive function study, agents administered to male rats (Example 1); assay type: in vivo, rat; settings: for Amount of gestation female rats / Fertility index / Gestation index / Amount of embryonate female rats: administered to male rats; for Amount of embryonate female rats: of 20 females housed with males; for Amount of babies delivered by 1 female / Post-implantation loss / Postnatal loss after 3 weeks / Pre-implantation loss / Weight of newborn baby rats / Dynamics of babies' body weight, 1st week / Dynamics of babies' body weight, 2nd week / Dynamics of babies' body weight, 3rd week / Dynamics of babies' body weight, 4th week / Craniocaudal size of fetus / Fetus weight / Amount of dead fetuses / Amount of implantation sites / Amount of resorptions / Amount of viable fetuses / Amount of yellow bodies: 10 weeks; for Craniocaudal size of fetus / Fetus weight: 20th day of gestation; for Amount of dead fetuses / Amount of implantation sites / Amount of resorptions / Amount of viable fetuses / Amount of yellow bodies: females sacrificed on 20th day of gestation
Procedure: 180 male and female Wistar rats were tested in the 110 experiments (initial body weight—180-200 g).
Group of 60 male rats was grouped into 6 subgroups each including 10 animals. Each group was treated as follows: group 1—vegetable oil, group 2—β-cyclodextrin, group 3—the agent of present invention, 0.35 mg/kg (the prototype agent), group 4—medication, 0.70 mg/kg (the prototype agent), group 5—the agent of present invention in a clathrate complex, 0.35 mg/kg, group 6—the agent of present invention in a clathrate complex, 0.70 mg/kg.
Male rats of the study subgroups were intragastrically given the above mentioned doses of the prototype agent and the agent of present invention in the clathrate complex form daily during 10 weeks (2-3 cycles of spermatozoa maturation). At the same time, animals of control groups were treated with corresponding amounts of placebo consisting of the vegetable oil or β-cyclodextrin. The placebo was chosen based on the fact that the prototype agent is an oil-soluble compound and the agent of present invention in the clathrate complex form is a water soluble compound. The drugs were administered once daily (at 10 a.m.).
After completion of dosing 6 groups of animals were formed: • the first (vegetable oil)—20 control female rats were housed together with 10 control male rats; the second (β-cyclodextrin)—20 control female rats were housed together with 10 control male rats; the third (the prototype agent, 0.35 mg/kg)—20 study female rats housed together with 10 control male rats; • the fourth (the prototype, 0.70 mg/kg)—20 control female rats were housed together with 10 study male rats; • the fifth (the agent of present invention in the clathrate complex form 0.35 mg/kg)—20 study female rats were housed together with 10 control male rats; • the sixth (the agent of present invention in the clathrate complex form 0.70 mg/kg)—20 control female rats were housed together with 10 study male rats.
During two estrous cycles, vaginal smear preparations were analyzed. Proestrus, estrus and metaestrum phases were detected. Presence of spermatozoa in vaginal smear preparations was registered as the first day of gestation. After 10 days, two subgroups of gestation female rats were formed from female rats in each of […] groups. Female rats of the first subgroups were sacrificed on 20th day of gestation. Amount of fetuses, resorption, implantation sites in the uterine cavity and yellow bodies of ovary were counted. Based on the obtained data, pre-implantation and post-implantation fetal death indexes were calculated according to the following equation: […]
where N1—amount of yellow bodies, N2—amount of implantation sites
where N1—amount of implantation sites N2—amount of viable fetuses.
Further, fertility index (ratio between the amount of female rats housed together with male rats to the amount of female rats having spermatozoa in vaginal smear preparations) and gestation index (ratio between the amount of female rats having spermatozoa in vaginal smear preparations to the amount of animals with full-term pregnancy):
where N1—amount of embryonate female rats N2—amount female rats housed together with male rats
where N1—amount of gestation female rats N2—amount of embryonate female rats Pathological changes (subcutaneous hematomas and edemas, developmental defects of skeletal system and eye globes) were registered.
The second groups of gestation female rats were allowed to parturiate under monitoring. Animals were weighed weekly and weight gain was registered. Parturition date, amount of babies in the brood and weight of babies were recorded. On 21st day after parturition, the survival rate and total and median weight of babies were measured.

[4] = administered to female rats, 2 weeks
[5] = administered to male rats, 10 weeks
[6] = 0.35 mg/kg intragastrically daily during 10 weeks
[7] = 0.70 mg/kg intragastrically daily during 10 weeks

In the case of `c1ccc(C2C3=C(CCCC3)[Se]C3=C2CCCC3)cc1` [Prototype agent, 9-phenyl-sym-octahydroselenoxanthene], the “Solubility (oil-soluble / water soluble)” value [1] is reported as “oil-soluble”, the “Amount of embryonate female rats” value (Wistar rats [2]; administered to female rats, 0.35 mg/kg intragastrically once a day during 2 weeks) is reported as 16 and the “Amount of babies delivered by 1 female” value (Wistar rats [2]; [4]) is reported as 8.6 ± 0.9. For the same compound, the “Amount of dead fetuses” value (Wistar rats [2]; [4]) was 0, the “Amount of gestation female rats” value (Wistar rats [2]; [4]) was 14 and the “Amount of implantation sites” value (Wistar rats [2]; [4]) was 9.9 ± 0.6. For the same compound, the Amount of resorptions (Wistar rats [2]; [4]) was 0.4 ± 0.2, the “Amount of viable fetuses” value (Wistar rats [2]; [4]) was 9.2 ± 1.1 and the “Amount of yellow bodies” value (Wistar rats [2]; [4]) was 10.7 ± 0.7. For the same compound, the “Carniocaudal size of fetus” value (Wistar rats [2]; [4]) was 35 ± 2 mm, the Fertility index (Wistar rats [2]; [4]) was 80% and the Fetus body weight (Wistar rats [2]; [4]) was 3.4 ± 0.2 g. For the same compound, the Gestation index (Wistar rats [2]; [4]) was 88%, the Post-implantation loss (Wistar rats [2]; [4]) was 7.1% and the “Postnatal loss after 3 weeks” value (Wistar rats [2]; [4]) was 2.5%. For the same compound, the Pre-implantation loss (Wistar rats [2]; [4]) was 7.5%, the “Weight of newborn baby rats” value (Wistar rats [2]; [4]) was 6.2 ± 0.9 g and the “Dynamics of infant body weight, 1st week” value (Wistar rats [2]; [4]) was 18.8 ± 1.2 g. For the same compound, the “Dynamics of infant body weight, 2nd week” value (Wistar rats [2]; [4]) was 26.3 ± 1.5 g, the “Dynamics of infant body weight, 3rd week” value (Wistar rats [2]; [4]) was 47.4 ± 2.0 g and the “Dynamics of infant body weight, 4th week” value (Wistar rats [2]; [4]) was 61.5 ± 2.8 g. For the same compound, the “Amount of embryonate female rats” value (Wistar rats [2]; administered to male rats, 0.35 mg/kg intragastrically daily during 10 weeks) was 17, the “Amount of babies delivered by 1 female” value (Wistar rats [2]; [5]) was 8.7 ± 0.8 and the “Amount of dead fetuses” value (Wistar rats [2]; [5]) was 0. The “Amount of gestation female rats” value (Wistar rats [2]; [5]) was 15, the “Amount of implantation sites” value (Wistar rats [2]; [5]) was 10.1 ± 1.1 and the Amount of resorptions (Wistar rats [2]; [5]) was 0.4 ± 0.2. For the same compound, the “Amount of viable fetuses” value (Wistar rats [2]; [5]) was 9.4 ± 1.0, the “Amount of yellow bodies” value (Wistar rats [2]; [5]) was 10.8 ± 0.8 and the “Carniocaudal size of fetus” value (Wistar rats [2]; [5]) was 35 ± 1 mm. It also gave a Fertility index (Wistar rats [2]; [5]) of 85%, a Fetus body weight (Wistar rats [2]; [5]) of 3.5 ± 0.2 g and a Gestation index (Wistar rats [2]; [5]) of 88%. For the same compound, the Post-implantation loss (Wistar rats [2]; [5]) was 6.9%, the “Postnatal loss after 3 weeks” value (Wistar rats [2]; [5]) was 2.6% and the Pre-implantation loss (Wistar rats [2]; [5]) was 6.5%. The “Weight of newborn baby rats” value (Wistar rats [2]; [5]) was 6.4 ± 1.2 g, the “Dynamics of infant body weight, 1st week” value (Wistar rats [2]; [5]) was 20.1 ± 0.9 g and the “Dynamics of infant body weight, 2nd week” value (Wistar rats [2]; [5]) was 27.2 ± 1.5 g. For the same compound, the “Dynamics of infant body weight, 3rd week” value (Wistar rats [2]; [5]) was 45.9 ± 1.9 g, the “Dynamics of infant body weight, 4th week” value (Wistar rats [2]; [5]) was 61.9 ± 2.6 g and the “Amount of gestation female rats” value (Wistar rats [3]; [6]) was 13. For the same compound, the Fertility index (Wistar rats [3]; [6]) was 80%, the Gestation index (Wistar rats [3]; [6]) was 81% and the “Amount of embryonate female rats” value (Wistar rats [3]; [6]) was 16. For the same compound, the “Amount of gestation female rats” value (Wistar rats [3]; [7]) was 14, the Fertility index (Wistar rats [3]; [7]) was 85% and the Gestation index (Wistar rats [3]; [7]) was 82%. The “Amount of embryonate female rats” value (Wistar rats [3]; [7]) was 17, the “Amount of babies delivered by 1 female” value (Wistar rats [3]; male rats 0.35 mg/kg) was 9.2 ± 1.1 and the Post-implantation loss (Wistar rats [3]; male rats 0.35 mg/kg) was 5.3%. The “Postnatal loss after 3 weeks” value (Wistar rats [3]; male rats 0.35 mg/kg) was 2.8%, the Pre-implantation loss (Wistar rats [3]; male rats 0.35 mg/kg) was 5.1% and the “Weight of newborn baby rats” value (Wistar rats [3]; male rats 0.35 mg/kg) was 5.7 ± 0.9 g. For the same compound, the “Dynamics of babies' body weight, 1st week” value (Wistar rats [3]; male rats 0.35 mg/kg) was 19.2 ± 1.1 g, the “Dynamics of babies' body weight, 2nd week” value (Wistar rats [3]; male rats 0.35 mg/kg) was 25.2 ± 1.6 g and the “Dynamics of babies' body weight, 3rd week” value (Wistar rats [3]; male rats 0.35 mg/kg) was 45.7 ± 1.2 g. The “Dynamics of babies' body weight, 4th week” value (Wistar rats [3]; male rats 0.35 mg/kg) was 60.4 ± 1.9 g, the “Craniocaudal size of fetus” value (Wistar rats [3]; male rats 0.35 mg/kg) was 33 ± 2 mm and the Fetus weight (Wistar rats [3]; male rats 0.35 mg/kg) was 3.3 ± 0.2 g. For the same compound, the “Amount of dead fetuses” value (Wistar rats [3]; male rats 0.35 mg/kg) was 0, the “Amount of implantation sites” value (Wistar rats [3]; male rats 0.35 mg/kg) was 13.1 ± 1.0 and the Amount of resorptions (Wistar rats [3]; male rats 0.35 mg/kg) was 0.6 ± 0.2. For the same compound, the “Amount of viable fetuses” value (Wistar rats [3]; male rats 0.35 mg/kg) was 12.4 ± 0.8, the “Amount of yellow bodies” value (Wistar rats [3]; male rats 0.35 mg/kg) was 13.8 ± 1.2 and the “Amount of babies delivered by 1 female” value (Wistar rats [3]; male rats 0.70 mg/kg) was 9.0 ± 1.2. For the same compound, the Post-implantation loss (Wistar rats [3]; male rats 0.70 mg/kg) was 4.8%, the “Postnatal loss after 3 weeks” value (Wistar rats [3]; male rats 0.70 mg/kg) was 2.8% and the Pre-implantation loss (Wistar rats [3]; male rats 0.70 mg/kg) was 5.3%. For the same compound, the “Weight of newborn baby rats” value (Wistar rats [3]; male rats 0.70 mg/kg) was 5.8 ± 1.0 g, the “Dynamics of babies' body weight, 1st week” value (Wistar rats [3]; male rats 0.70 mg/kg) was 19.1 ± 0.8 g and the “Dynamics of babies' body weight, 2nd week” value (Wistar rats [3]; male rats 0.70 mg/kg) was 25.3 ± 1.2 g. The “Dynamics of babies' body weight, 3rd week” value (Wistar rats [3]; male rats 0.70 mg/kg) was 44.7 ± 1.5 g, the “Dynamics of babies' body weight, 4th week” value (Wistar rats [3]; male rats 0.70 mg/kg) was 59.8 ± 2.4 g and the “Craniocaudal size of fetus” value (Wistar rats [3]; male rats 0.70 mg/kg) was 33 ± 1 mm. For the same compound, the Fetus weight (Wistar rats [3]; male rats 0.70 mg/kg) was 3.3 ± 0.1 g, the “Amount of dead fetuses” value (Wistar rats [3]; male rats 0.70 mg/kg) was 0 and the “Amount of implantation sites” value (Wistar rats [3]; male rats 0.70 mg/kg) was 12.5 ± 1.0. For the same compound, the Amount of resorptions (Wistar rats [3]; male rats 0.70 mg/kg) was 0.5 ± 0.2, the “Amount of viable fetuses” value (Wistar rats [3]; male rats 0.70 mg/kg) was 11.9 ± 0.7 and the “Amount of yellow bodies” value (Wistar rats [3]; male rats 0.70 mg/kg) was 13.2 ± 0.9.

Reference: patent publication US20150297552A1, “FERTILITY ENHANCING AGENT” (OCTAPAM LIMITED, priority 2012, published 2015)
